Laboratory results reported in PMC6691788, “Design and synthesis of phthalazine-based compounds as potent anticancer agents with potential antiangiogenic activity via VEGFR-2 inhibition” (Journal of Enzyme Inhibition and Medicinal Chemistry, 2019).

What was measured:
Experiment in all cases: NCI 60 cell panel SRB screen
KM12 = format: cell-based; details: Homo sapiens
PC-3 = format: cell-based; details: Homo sapiens
SN12C = format: cell-based; details: Homo sapiens
HOP-62 = format: cell-based; details: Homo sapiens
UACC-62 = format: cell-based
HL-60(TB) = format: cell-based; details: Homo sapiens
HS 578T = format: cell-based; details: Homo sapiens
786-0 = format: cell-based; details: Homo sapiens; 786-0, 5 log dose
BT-549 = format: cell-based; details: Homo sapiens
NCI-H23 = format: cell-based; details: Homo sapiens
MALME-3M = format: cell-based; details: Homo sapiens
CCRF-CEM = format: cell-based, human; details: Homo sapiens
UACC-257 = format: cell-based; details: Homo sapiens
IGROV1 = format: cell-based; details: Homo sapiens, IGROV-1
RPMI-8226 = format: cell-based; details: Homo sapiens
SK-MEL-5 = format: cell-based; details: Homo sapiens
MDA-MB 231/ATCC = format: cell-based; details: Homo sapiens
HCT-116 = format: cell-based; details: Homo sapiens
U251 = format: cell-based; details: Homo sapiens, U-251
ACHN = format: cell-based; details: Homo sapiens
SK-MEL-28 = format: cell-based; details: Homo sapiens
SR = format: cell-based; details: Homo sapiens
SK-OV-3 = format: cell-based; details: Homo sapiens
NCI-H460 = format: cell-based; details: Homo sapiens
SW-620 = format: cell-based; details: Homo sapiens
[1] = 5 log dose, 48 h, read-out: LC50 (the source's name)
[2] = single dose 10 μM, read-out: percent cell growth promotion

Structure (SMILES): O=C(Nc1ccc(Cl)cc1)Nc1ccc(Oc2nncc3ccccc23)cc1 [Compound 7b, 1–(4-Chlorophenyl)-3–(4-(phthalazin-1-yloxy)phenyl)urea]
- GI50 (KM12; KM12, 5 log dose): 0.88 µM
- IC (TGI) (KM12; KM12, 5 log dose): 2.65 µM
- CC50 (KM12; KM12, 5 log dose, 48 h, read-out: LC50 (the source's name)): 7.38 µM
- activity at 10 µM (KM12; KM12, single dose 10 μM, read-out: percent cell growth promotion): -32.3%
- GI50 (PC-3; PC-3, 5 log dose): 1.64 µM
- IC (TGI) (PC-3; PC-3, 5 log dose): 6.08 µM
- CC50 (PC-3; PC-3, 5 log dose, 48 h, read-out: LC50 (the source's name)): 35.6 µM
- activity at 10 µM (PC-3; PC-3, single dose 10 μM, read-out: percent cell growth promotion): -29%
- GI50 (SN12C; 5 log dose): 1.03 µM
- IC (TGI) (SN12C; 5 log dose): 3.58 µM
- CC50 (SN12C; [1]): > 100 µM
- activity at 10 µM (SN12C; [2]): -3.83%
- GI50 (HOP-62; HOP-62, 5 log dose): 1.09 µM
- IC (TGI) (HOP-62; HOP-62, 5 log dose): 4.32 µM
- CC50 (HOP-62; HOP-62, 5 log dose, 48 h, read-out: LC50 (the source's name)): 47.7 µM
- activity at 10 µM (HOP-62; HOP-62, single dose 10 μM, read-out: percent cell growth promotion): 26.7%
- GI50 (UACC-62; Homo sapiens, UACC-62): 1.08 µM
- activity at 10 µM (UACC-62; Homo sapiens, UACC-62, read-out: percent cell growth promotion): -14.3%
- CC50 (UACC-62; Homo sapiens, UACC-62, 5 log dose, 48 h, read-out: LC50 (the source's name)): 14 µM
- TGI (UACC-62; UACC-62, 5 log dose): 3.46 µM
- GI50 (HL-60(TB); 5 log dose): 1.08 µM
- IC (TGI) (HL-60(TB); 5 log dose): 13.4 µM
- CC50 (HL-60(TB); [1]): > 100 µM
- activity at 10 µM (HL-60(TB); [2]): 3.65%
- GI50 (HS 578T; Hs-578T): 0.69 µM
- IC (TGI) (HS 578T; Hs-578T, read-out: TGI): 47 µM
- activity at 10 µM (HS 578T; Hs-578T, read-out: percent cell growth promotion): 37.5%
- CC50 (HS 578T; HS 578T, 5 log dose, 48 h, read-out: LC50 (the source's name)): > 100 µM
- GI50 (786-0): 0.87 µM
- IC (TGI) (786-0): 2.35 µM
- GI50 (BT-549; BT-549): 2.08 µM
- IC (TGI) (BT-549; BT-549, read-out: TGI): 7.43 µM
- activity at 10 µM (BT-549; BT-549, read-out: percent cell growth promotion): -10.3%
- CC50 (BT-549; BT-549, 5 log dose, 48 h, read-out: LC50 (the source's name)): 58.1 µM
- GI50 (NCI-H23; NCI-H23, 5 log dose): 0.75 µM
- IC (TGI) (NCI-H23; NCI-H23, 5 log dose): 2.87 µM
- CC50 (NCI-H23; NCI-H23, 5 log dose, 48 h, read-out: LC50 (the source's name)): 9.61 µM
- activity at 10 µM (NCI-H23; NCI-H23, single dose 10 μM, read-out: percent cell growth promotion): 0.5%
- GI50 (MALME-3M; Malme-3M): 0.44 µM
- IC (TGI) (MALME-3M; Malme-3M, read-out: TGI): 2.31 µM
- activity at 10 µM (MALME-3M; Malme-3M, read-out: percent cell growth promotion): 0.78%
- CC50 (MALME-3M; MALME-3M, 5 log dose, 48 h, read-out: LC50 (the source's name)): 9.69 µM
- GI50 (CCRF-CEM; 5 log dose): 0.32 µM
- CC50 (CCRF-CEM; [1]): > 100 µM
- activity at 10 µM (CCRF-CEM; [2]): 8.7%
- GI50 (UACC-257; UACC-257): 0.15 µM
- IC (TGI) (UACC-257; UACC-257, read-out: TGI): 4.04 µM
- activity at 10 µM (UACC-257; UACC-257, read-out: percent cell growth promotion): 34.4%
- CC50 (UACC-257; UACC-257, 5 log dose, 48 h, read-out: LC50 (the source's name)): 12.9 µM
- GI50 (IGROV1; IGROV1, 5 log dose): 1.16 µM
- IC (TGI) (IGROV1; IGROV1, 5 log dose): 5 µM
- CC50 (IGROV1; IGROV1, 5 log dose, 48 h, read-out: LC50 (the source's name)): > 100 µM
- activity at 10 µM (IGROV1; IGROV1, single dose 10 μM, read-out: percent cell growth promotion): 8.16%
- GI50 (RPMI-8226; RPMI-8226, 5 log dose): 0.48 µM
- IC (TGI) (RPMI-8226; RPMI-8226, 5 log dose): 4.58 µM
- CC50 (RPMI-8226; RPMI-8226, 5 log dose, 48 h, read-out: LC50 (the source's name)): > 100 µM
- activity at 10 µM (RPMI-8226; RPMI-8226, single dose 10 μM, read-out: percent cell growth promotion): -0.08%
- GI50 (SK-MEL-5; SK-MEL-5): 1.02 µM
- IC (TGI) (SK-MEL-5; SK-MEL-5, read-out: TGI): 2.81 µM
- activity at 10 µM (SK-MEL-5; SK-MEL-5, read-out: percent cell growth promotion): -43.3%
- CC50 (SK-MEL-5; SK-MEL-5, 5 log dose, 48 h, read-out: LC50 (the source's name)): 6.56 µM
- GI50 (MDA-MB 231/ATCC; MDA-MB-231): 0.39 µM
- IC (TGI) (MDA-MB 231/ATCC; MDA-MB-231, read-out: TGI): 3.68 µM
- activity at 10 µM (MDA-MB 231/ATCC; MDA-MB-231, read-out: percent cell growth promotion): -25.2%
- CC50 (MDA-MB 231/ATCC; MDA-MB-231, MDA-MDA 231/ATCC, 5 log dose, 48 h, read-out: LC50 (the source's name)): 42.4 µM
- GI50 (HCT-116; HCT-116, 5 log dose): 0.32 µM
- IC (TGI) (HCT-116; HCT-116, 5 log dose): 1.2 µM
- LC50 (lethal concentration 50%) (HCT-116; HCT-116, 5 log dose, 48 h): 4.65 µM
- activity at 10 µM (HCT-116; HCT-116, single dose 10 μM, read-out: percent cell growth promotion): -56.9%
- GI50 (U251; U251, 5 log dose): 1.01 µM
- IC (TGI) (U251; U251, 5 log dose): 2.38 µM
- CC50 (U251; U251, 5 log dose, 48 h, read-out: LC50 (the source's name)): 5.61 µM
- activity at 10 µM (U251; U251, single dose 10 μM, read-out: percent cell growth promotion): -31.1%
- GI50 (ACHN; 5 log dose): 1.05 µM
- IC (TGI) (ACHN; 5 log dose): 2.33 µM
- CC50 (ACHN; [1]): 5.18 µM
- activity at 10 µM (ACHN; [2]): -15.1%
- GI50 (SK-MEL-28; SK-MEL-28): 0.42 µM
- IC (TGI) (SK-MEL-28; SK-MEL-28, read-out: TGI): 1.65 µM
- activity at 10 µM (SK-MEL-28; SK-MEL-28, read-out: percent cell growth promotion): -31.6%
- CC50 (SK-MEL-28; SK-MEL-28, 5 log dose, 48 h, read-out: LC50 (the source's name)): 5.33 µM
- GI50 (SR; 5 log dose): 0.4 µM
- IC (TGI) (SR; 5 log dose): > 100 µM
- CC50 (SR; [1]): > 100 µM
- activity at 10 µM (SR; [2]): 2.64%
- GI50 (SK-OV-3; SK-OV-3, 5 log dose): 1.74 µM
- IC (TGI) (SK-OV-3; SK-OV-3, 5 log dose): 5.48 µM
- CC50 (SK-OV-3; SK-OV-3, 5 log dose, 48 h, read-out: LC50 (the source's name)): 27.2 µM
- activity at 10 µM (SK-OV-3; SK-OV-3, single dose 10 μM, read-out: percent cell growth promotion): 56.7%
- GI50 (NCI-H460; NCI-H460, 5 log dose): 2.79 µM
- IC (TGI) (NCI-H460; NCI-H460, 5 log dose): 8.32 µM
- LC50 (concentration causing 50% cell kill) (NCI-H460; NCI-H460, 5 log dose, 48 h): 45.5 µM
- activity at 10 µM (NCI-H460; NCI-H460, single dose 10 μM, read-out: percent cell growth promotion): 21.5%
- GI50 (SW-620; SW-620, 5 log dose): 0.34 µM
- IC (TGI) (SW-620; SW-620, 5 log dose): 1.06 µM
- CC50 (SW-620; SW-620, 5 log dose, 48 h, read-out: LC50 (the source's name)): 30.3 µM
- activity at 10 µM (SW-620; SW-620, single dose 10 μM, read-out: percent cell growth promotion): -30.1%
